Reference: patent publication US20250276996A1, “CATIONICALLY-ENFRAMED HIGH DENSITY AROMATIC PEPTIDES” (Research Foundation of the City University of New York, priority 2022, published 2025)
“Also recorded” adds a separate entry of the source. Non-standard residues stand in square brackets, D forms with d. No end group written: not given here.

How the values were obtained:
MDBK cells = assay: Cell survival in serum-free media (AlamarBlue); format: cell-based, bovine; conditions: 1 μM, 5 days serum starvation
Experimental: Serum starvation experiments: Biotin-HDAP2's ability to improve cell viability and function following serum starvation was assessed. For all experiments, MDBK cells were seeded in 35 mm cell culture dishes (5×10^4 cells) in DMEM medium with 10% FBS (Fetal Bovine Serum) for 24 hrs and then incubated in serum-free medium with or without biotin-HDAP2 (1 μM) for 5 days to induce cell death. For quantitative measurements, wells were washed to remove dead cells, and then stained with AlamarBlue for 60 min. Quantitative analysis of dye conversion was measured using a fluorescent plate reader (550 ex/580 em) and cell viability was expressed as folds change (increase or decrease) over scrum-starved untreated cells.
Effects of peptides on cell survival in serum-free media: Cell survival in serum starvation conditions was studied in the presence and absence of biotin-HDAP2 using MDBK cells. Cells were plated at a density of 1-2×10^5 cells/well in 96 well plates in DMEM/10% FBS media. The following day, cells were washed and the medium replaced with DMEM serum-free media in the presence or absence of different concentrations of biotin-HDAP2 and incubated for 5 days. Cell viability was assessed using the Resaruzin (Alamar blue) indicator dye. Quantitative analysis of dye conversion was measured using a fluorescent plate reader (ex/em=550/580 nm) and viability was expressed as fold increase over of untreated cells.

[1] = test system: antimycin-induced scratching; assay: Topical antimycin-induced scratching; format: in vivo, C57BL/6J mice; conditions: 100 μM topical with 200 μM antimycin
Experimental: However, antimycin-induced scratching in mice was […] by biotin-free HDAP2. Dermal administration of antimycin, a mitochondrial Complex III irreversible inhibitor, is known to induce ROS formation and oxidative stress in C fibers of sensory neurons, resulting in severe scratching in mice. Biotin-HDAP2 and biotin-free HDAP2 were tested to see if either can inhibit topical antimycin-induced itching in 12 months old C57BL/6J mice. […] Specifically, 200 μM of topical antimycin in methanol induced itching, which was monitored for 60 min. […] Error bars represent SEM (n=3) **P<0.001. Topical administration of 100 μM of biotin-free HDAP2 with antimycin increased scratching by 2.5 fold. Error bars represent SEM (n=3) ***P<0.0001.

ARPE-19 cells = assay: Mitochondrial potential in the presence of CCCP (TMRM); format: cell-based; conditions: 10 μM of CCCP
Experimental: Effects of peptides on mitochondrial potential in the presence of Carbonyl cyanide m-chlorophenylhydrazone (CCCP): ARPE-19 cells (ATTC-CRL-2302) (5×10^4 cells) were seeded in 35 mm glass dishes in DMEM/F12 medium with 10% FBS for 24 hr. On the day of the experiment, cells were cultured in DMEM/F12 in the presence of different concentrations of biotin-HDAP2 for 60 min (FIG. 17B). Then, cells were incubated with 10 μM CCCP in the presence of 5 nM TMRM, 100 nM Mito View Green, and 10 μg/ml Hoechst 33342 for 15 min at 37° C. Fluorescent images were immediately obtained with a Nikon Eclipse 50i fluorescence microscope (60× objective) using FITC (Mito View Green), Texas Red (TMRM), and DAPI (Hoechst) filters. Images were collected from three independent experiments, using 4-6 random fields for each treatment group, and imaged and analyzed as described for NR.

Compound | AlamarBlue fluorescence / protection during serum starvation (MDBK cells) | increase of scratching [1] | effect on antimycin-induced scratching ([1]; 60 min) | ΔΨm relative to control cells (ARPE-19 cells)
[dR]FF[dR] [biotin-free HDAP2] | did not increase AlamarBlue fluorescence; also recorded: does not protect cells during serum starvation | 2.5 fold | potentiated | 
N#CC(C#N)=NNc1cccc(Cl)c1 [CCCP, carbonyl cyanide m-chlorophenylhydrazone, reference compound] |  |  |  | 20%
